Measured values as given in PMC6435334 (Nature chemical biology, 2018).

What was measured:
[1] = molecular target: D-apionate lactonase / D-apionolactonase (A6X3G3, "hypothetical" protein) (Brucella anthropi, UniProt A6X3G3)
[2] = molecular target: D-apiose dehydrogenase (B9JK80) (Martinezella rhizogenes, UniProt B9JK80); assay: NADH formation, […] nm; format: biochemical; conditions: 1.5 mM NAD+; 50 mM Tris-HCl pH 8.5; 25 °C; furanose D-apiose
Sequence of D-apiose dehydrogenase (B9JK80) (B9JK80 whole entry): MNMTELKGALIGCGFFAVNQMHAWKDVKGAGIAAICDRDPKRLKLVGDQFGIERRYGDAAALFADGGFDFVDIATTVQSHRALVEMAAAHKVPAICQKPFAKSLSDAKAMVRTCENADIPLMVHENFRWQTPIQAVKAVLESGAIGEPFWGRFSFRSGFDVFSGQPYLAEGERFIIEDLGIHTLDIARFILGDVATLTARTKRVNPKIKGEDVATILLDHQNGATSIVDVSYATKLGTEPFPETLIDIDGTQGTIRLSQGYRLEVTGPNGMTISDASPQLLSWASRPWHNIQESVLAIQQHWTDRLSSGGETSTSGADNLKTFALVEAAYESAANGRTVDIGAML

Sequence of D-apionate lactonase / D-apionolactonase (A6X3G3, "hypothetical" protein) (A6X3G3 whole entry, looked up, one chain of several): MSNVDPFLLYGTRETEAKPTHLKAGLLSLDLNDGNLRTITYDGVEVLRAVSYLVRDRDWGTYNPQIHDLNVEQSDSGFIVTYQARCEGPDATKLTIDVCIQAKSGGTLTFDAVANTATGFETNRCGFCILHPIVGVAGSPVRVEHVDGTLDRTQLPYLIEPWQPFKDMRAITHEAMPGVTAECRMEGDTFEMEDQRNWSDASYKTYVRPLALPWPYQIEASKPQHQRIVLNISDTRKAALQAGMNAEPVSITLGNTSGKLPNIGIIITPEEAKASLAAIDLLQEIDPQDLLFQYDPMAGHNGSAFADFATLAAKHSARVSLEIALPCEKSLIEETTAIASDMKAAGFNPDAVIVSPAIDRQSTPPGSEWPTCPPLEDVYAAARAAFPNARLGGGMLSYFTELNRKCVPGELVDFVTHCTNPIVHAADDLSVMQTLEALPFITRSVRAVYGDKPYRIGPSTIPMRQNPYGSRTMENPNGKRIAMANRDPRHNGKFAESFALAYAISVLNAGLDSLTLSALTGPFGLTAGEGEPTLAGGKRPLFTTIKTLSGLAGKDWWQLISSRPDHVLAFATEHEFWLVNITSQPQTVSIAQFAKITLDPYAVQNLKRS

SMILES	1H NMR, D-apionolactone generated in situ by B9JK80 [1]	KM [2]
O=C1OCC(O)(CO)[C@H]1O (stereo partly drawn) [D-apionolactone]	it hydrolyzed D-apionolactone to D-apionate	–
O=C[C@H](O)C(O)(CO)CO [D-apiose]	–	(B9JK80) catalyzed oxidation of D-apiose to D-apionolactone using NAD^+
